Counter-ions that a name gives are not always drawn.
What follows are compounds tested on IL-6 cytokine output from isolated primary human monocytes (assay: Primary human monocyte AlphaLISA IL-6 cytokine assay). Details: CD14+ primary human monocytes, LPS 24 hr then Nigericin 1 hour.
Format: cell-based
Procedure: Measuring Inhibitory Effects on IL-1β and IL-6 Cytokine Output from Isolated Primary Human Monocytes
The cytokine inhibition profiles of compounds of formula (IW-1) were determined in a CD14^+ isolated primary human monocyte cell assay. All assays were performed in RPMI-1640 growth medium (Gibco), supplemented with heat-inactivated fetal bovine serum (FBS) and 1% penicillin-streptomycin unless specified otherwise. The IL-1β and IL-6 cytokine inhibition assays were each run in a background of isolated primary human monocyte cells as described below. All reagents described were from Sigma-Aldrich unless specified otherwise. Compounds were prepared as 100 mM DMSO stocks.
Primary peripheral blood mononuclear cells (PBMCs) were isolated from human whole blood. Following PBMC isolation, a CD14^+ monocyte isolation step was conducted whereby CD14^+ magnetic beads (Miltenyi Biotec) were incubated for 15 minutes with the PBMC suspension that was previously treated with ice cold T-cell isolation buffer (PBS, 0.5% BSA, 2 mM EDTA). Following bead incubation, the treated cell suspension was passed through a magnetic separation column designed to positively select for magnetically labelled cells. The isolated CD14^+ monocytes were subsequently plated at the appropriate cell density for the assay, prior to compound treatment on the day of plating. Working concentrations of compounds were prepared separately in RPMI-1640 only growth medium and pre-incubated with the cells for 30 minutes (37° C./5% CO2). Following the 30 minute compound pre-incubation, primary monocytes were treated with an appropriate concentration of LPS and subsequently incubated for a 24 hr period (37° C./5% CO2). An appropriate final concentration of Nigericin was then dispensed into the primary monocyte plates and incubated for 1 hour (37° C./5% CO2) before monocyte supernatants were harvested and collected in separate polypropylene 96-well holding plates prior to commencing the AlphaLISA cytokine assay.
Reagents from each of the IL-1β and IL-6 commercial kits (Perkin Elmer) were prepared and run according to the manufacturer's instructions. Subsequently, fluorescence signal was measured in a microplate reader (EnVision® Multilabel Reader, Perkin Elmer).
Percentage inhibition was calculated per cytokine by normalising the sample data to the high and low controls used within each plate (+/−LPS respectively). Percentage inhibition was then plotted against compound concentration and the 50% inhibitory concentration (IC50) was determined from the resultant concentration-response curve.

Point of comparison: `C=C(CC(=O)OCCCCCCCC)C(=O)OCCC#N` [Example 1, 1-(2-cyanoethyl) 4-octyl 2-methylenesuccinate], IC50 26.9 µM. Against it:
- C=C(CC(=O)OCCCCCCCC)C(=O)OCCN1C(=O)CCC1=O [Example 9, 1-(2-(2,5-dioxopyrrolidin-1-yl)ethyl) 4-octyl 2-methylenesuccinate] — 2.5-fold lower, 10.7 µM
- COC(=O)/C=C/C(=O)OC [dimethyl fumarate, reference compound] — 1.7-fold lower, 15.7 µM
- C=C(CC(=O)OCCCCCCCC)C(=O)OCCS(C)(=O)=O [Example 2, 1-(2-(methylsulfonyl)ethyl) 4-octyl 2-methylenesuccinate] — 2-fold lower, 13.2 µM
